{"source": "patent US7514428B2", "about": "“Pesticidal 1-aryl-3-amidoxime-pyrazole derivatives” (Merial Limited, priority 2002, dated 2009)"}
{"system": "Ctenocephalides felis, Diabrotica undecimpunctata, Nephotettix cincticeps, Rhipicephalus sanguineus", "assay": "Parasiticidal and pesticidal tests, Methods A to E taken together (active in one or more of the tests, test not specified)", "assay_type": "in vivo", "settings": "active = at least 90% control (A, 5 ppm or less), 90% (B, 10 ppm), 98% mortality (C, 100 ppm), 70% (D, 1000 ppm) or 70% (E, 100 ppm); test not given per compound", "procedure": "The following representative test procedures, using compounds of the invention, were conducted to determine the parasiticidal and pesticidal activity of compounds of the invention.\nMethod A: Screening Method to Test Systemicity of Compounds Against Ctenocephalides Felis (Cat Flea)\nA test container was filled with 10 adults of Ctenocephalides felis. A glass cylinder was closed on one end with parafilm and placed on top of the test container. The test compound solution was then pipetted into bovine blood and added to the glass cylinder. The treated Ctenocephalides felis were held in this artificial dog test (blood 37° C., 40-60% relative humidity; Ctenocephalides felis 20-22° C., 40-60% relative humidity) and assessment performed at 24 and 48 hours after application.\nActive compounds gave at least 90% control of Ctenocephalides felis at a test concentration of 5 ppm or less.\nMethod B: Diabrotica Undecimpunctata (Southern Corn Rootworm) Screen\nTwo days before application, seeds of maize were soaked in water under warm conditions to elicit fast germination. One day before application, eggs of Diabrotica undecimpunctata were transferred to one half of a Japanese filter paper placed in a plastic petri dish. Afterwards, a sprouted maize seed was placed on a moistened pad beside the filter paper. Three drops of 200 microlitres of test compound solution were carefully pipetted onto the egg. The remainder of the solution was placed on the maize and then the Petri dish was closed. The treated eggs in the Petri dishes were held in a climate chamber for 6 days. The compound efficacy (percentage of dead eggs and/or larvae in comparison to untreated control) was assessed 6 days after application using a binocular microscope. […]\nThe leaves of 12 rice plants having a stem length of 8 cm were dipped for 5 seconds into an aqueous solution of the formulated test compound. […] After 6 days storage, the percentage mortality of leafhopper larvae was determined. […]\nSolutions of the test compounds were dropped onto filter paper, dried and the filter paper placed into test tubes and infested with 10 adults of Ctenocephalides felis. The treated Ctenocephalides felis were held in a climate chamber (26° C., 80% RH) and the percentage efficacy assessed 24 hours and 48 hours after application in comparison with the untreated control. […]\nSolutions of the test compounds were dropped onto filter paper, dried and the filter paper placed into test tubes and infested with 20-30 larvae (L1) of Rhipicephalus sanguineus and the tubes closed with a clip. The treated Rhipicephalus sanguineus were held in a climate chamber (25° C., 90% RH) and the percentage efficacy assessed 24 hours after application in comparison with the untreated control. […]"}
{"smiles": "CNc1c(S(=O)(=O)C(F)(F)F)c(C(N)=NOCc2ccccc2)nn1-c1c(Cl)cc(C(F)(F)F)cc1Cl", "note": "[Compound 1-49, 1-(2,6-Dichloro-4-trifluoromethylphenyl)-3-(N-benzyloxy-2-amidino)-5-methylamino-4-trifluoromethylsulfonylpyrazole]", "active in one or more of the above tests": "active"}
{"smiles": "CNc1c([S+]([O-])C(F)(F)F)c(C(=N)N(C)OCc2c(Cl)cccc2Cl)nn1-c1c(Cl)cc(C(F)(F)F)cc1Cl", "note": "(stereo not shown) [Compound 4-82, 1-(2,6-Dichloro-4-trifluoromethylphenyl)-3-[N-(2,6-dichlorobenzyloxy)-N-methyl-2-amidino]-5-methylamino-4-trifluoromethylsulfinylpyrazole]", "active in one or more of the above tests": "active"}
{"smiles": "CNc1c([S+]([O-])C(F)(F)F)c(C(=N)N(C)OCc2ccc(C(F)(F)F)cc2)nn1-c1c(Cl)cc(C(F)(F)F)cc1Cl", "note": "(stereo not shown) [Compound 4-93, 1-(2,6-Dichloro-4-trifluoromethylphenyl)-3-[N-methyl-N-(4-trifluoromethylbenzyloxy)-2-amidino]-5-methylamino-4-trifluoromethylsulfinylpyrazole]", "active in one or more of the above tests": "active"}
{"smiles": "CNc1c(S(=O)(=O)C(F)(F)F)c(C(=N)N(C)OCc2ccc(C(F)(F)F)cc2)nn1-c1c(Cl)cc(C(F)(F)F)cc1Cl", "note": "[Compound 4-128, 1-(2,6-Dichloro-4-trifluoromethylphenyl)-3-[N-methyl-N-(4-trifluoromethylbenzyloxy)-2-amidino]-5-methylamino-4-trifluoromethylsulfonylpyrazole]", "active in one or more of the above tests": "active"}
